Source: patent US6693208B2, “Compounds and compositions for delivering active agents” (Emisphere Technologies, Inc., priority 1999, dated 2004)

Assay: Heparin oral/intracolonic delivery in rats, heparin activity by APTT
Assay type: in vivo, Sprague-Dawley rats
Protocol: Oral gavage (PO) and/or intracolonic (IC) dosing solutions containing a delivery agent compound and heparin sodium USP in 25% aqueous propylene glycol were prepared. Either the sodium salt of the compound was used or the free acid was converted to the sodium salt with one equivalent of sodium hydroxide. Typically, delivery agent compound and heparin (about 166-182 IU/mg) were mixed by vortex as dry powders. This dry mixture was dissolved in 25% v/v aqueous propylene glycol, vortexed and placed in a sonicator (about 37° C.). The pH was adjusted to about 7 (6.5 to 8.5) with aqueous NaOH (2N). The dosing solution was sonicated to produce a clear solution. The final volume was adjusted to 3.0 mL. The final delivery agent compound dose, heparin dose and volume dose amounts are listed below in Table 2.
The typical dosing and sampling protocols were as follows. Male Sprague-Dawley rats weighing between 275-350 g were fasted for 24 hours and were anesthetized with ketamine hydrochloride (88 mg/kg) intramuscularly immediately prior to dosing. A dosing group of five rats was administered one of the dosing solutions. For oral gavage (PO) dosing, an 11 cm Rusch 8 French catheter was adapted to a 1 mL syringe with a pipette tip. The syringe was filled with dosing solution by drawing the solution through the catheter, which was then wiped dry. The catheter was placed down the esophagus leaving 1 cm of tubing past the rat's incisors. Solution was administered by pressing the syringe plunger. For intracolonic (IC) dosing, a 7.5 cm 8 fr Rusch catheter was adapted to a 1 ml syringe with a pipette tip. The dosing catheter was inserted into the colon through the anus. until the tube was no longer visible. The dosing solution was expressed slowly into the colon.
Citrated blood samples were collected by cardiac puncture following the administration of ketamine (88 mg/kg), typically at time—0.25, 0.5, 1.0 and 1.5 hours. Heparin activity was determined by utilizing the activated partial thromboplastin time (APTT) according to the method of Henry, J. B., Clinical Diagnosis and Management by Laboratory Methods, Philadelphia, Pa., W. B. Saunders (1979). Previous studied indicated baseline values of about 20 sec. Results from the five rats in each group were averaged for each time point. The maximum is reported below in Table 2.

[1] = IC, 1 ml/kg, compound 50 mg/kg, heparin 25 mg/kg
[2] = PO, 3 ml/kg, compound 200 mg/kg, heparin 100 mg/kg
[3] = IC, 1 ml/kg, compound 50 mg/kg, heparin 100 mg/kg

COc1ccc(O)c(C(=O)NCCCCCCCC(=O)O)c1 [Compound 1]
Mean Peak APTT (sec) ± SD) [1]: 102.3 ± 130.4 s

O=C([O-])CCc1ccc(NC(=O)c2ccccc2O)c(F)c1.[Na+] [Compound 5, sodium 3-(4-salicyloylamino-3-fluorophenyl)propionate]
Mean Peak APTT (sec) ± SD) [1]: 89.9 ± 68.6 s | Mean Peak APTT (sec) ± SD) [2]: 32.6 ± 5 s

O=C(O)CCCCCCCCCNC(=O)c1cc(Cl)cc(Cl)c1O [Compound 4, N-(3,5-dichlorosalicyloyl)-10-aminodecanoic acid]
Mean Peak APTT (sec) ± SD) [1]: 94 ± 47.5 s

COc1ccccc1C(=O)NCCCCCCCCCCC(=O)O [Compound 3]
Mean Peak APTT (sec) ± SD) [1]: 44.2 ± 16.2 s

COc1ccc(O)c(C(=O)Nc2ccc(CCC(=O)O)cc2)c1 [Compound 8]
Mean Peak APTT (sec) ± SD) [3]: 266.4 ± 165.7 s

O=CNc1ccccc1C(=O)Nc1ccc(CCC(=O)O)cc1 [Compound 7]
Mean Peak APTT (sec) ± SD) [1]: 28.6 ± 6.1 s

COc1ccc(O)c(C(=O)Nc2ccc(CCCC(=O)O)cc2)c1 [Compound 9]
Mean Peak APTT (sec) ± SD) [3]: 192.8 ± 50.9 s

Cc1cc(F)cc(C(=O)Nc2ccc(CCC(=O)O)cc2)c1O [Compound 6]
Mean Peak APTT (sec) ± SD) [1]: 90.6 ± 50.9 s | Mean Peak APTT (sec) ± SD) [2]: 33.8 ± 18.7 s
